The results in this text go back to a melting point compilation (Tetko et al.; mined from patent text by program, amines drawn as free bases though some values may be those of a salt).

Molecules are shown by their SMILES. Some results are limits rather than exact numbers.

The term melting point denotes the temperature, or range, at which the solid turns liquid. Turning to `COc1c(C)cnc(CS(=O)c2nc3c(C)c(OC)c(C)cc3[nH]2)c1C` (stereo unspecified), the melting point amounted to 137 °C.

As for `CCCCc1nc(Sc2ccccc2)c(CO)[nH]1`, the melting point was 45 °C. `Clc1ccc(C(c2ccccc2)(c2ccccc2)n2ccnc2)cc1` yielded a melting point of 125 °C. With `O=C(O)C1=Cc2cc(Cl)cc(-c3nc4ccccc4[nH]3)c2OC1C(F)(F)F` (stereo unspecified) the figure was over 300 °C; with `Cc1cc(C)c(N)nn1`, 123 to 126 °C; with `CS(=O)(=O)NC(=O)/C(C#N)=C/c1cn(-c2cc(C(F)(F)F)cc(C(F)(F)F)c2)nc1-c1cccc(Cl)c1`, 273 to 275 °C. With `O=C(O)c1cc(Oc2ccccc2)ccc1O` the figure was 126 to 128 °C; with `CN(C(=O)CCCOc1ccc2nc3[nH]c(=O)n(C)c3cc2c1)C1CCCCCC1`, 234 to 236 °C.

On to `CC(C)(C)C=C[C@H](O)c1ccc(C(F)(F)F)cc1`, for which the melting point lay within 30 to 32 °C. For `COc1ccc2c(c1)C(NC(=O)OCc1ccccc1)C(=O)N2c1ccc(F)cc1` (stereo unspecified) the value was 154 to 156 °C; for `Cc1cn(C(C)(C)C(=O)N(C)C)nc1-c1ccco1`, 131 to 134 °C.

Consider `COCC1(C)CCCSc2cc(C#Cc3ccc(C(=O)O)cc3)ccc21` (stereo unspecified), for which the melting point is 182 to 183 °C. Compound `Cc1ccccc1NS(=O)(=O)c1cc([N+](=O)[O-])ccc1C` yielded a melting point of 171 to 173 °C. With `N#CCc1ccc2oc3ncccc3c(=O)c2c1` the figure was 198 to 201 °C. For `O=c1cc2c3ccccc3sn2c2ccc(Cl)cc12` the value was over 350 °C; for `OC1CCN(c2cc3nc(S)[nH]c3cc2F)CC1`, 268 to 269 °C; for `O=C1c2ccccc2C(=O)N1Cc1ccc(Cl)nc1`, 142 to 143 °C. For `COc1ccc(CN(CCN(C)CCNC(=C[N+](=O)[O-])NCCCOc2cccc(CN3CCCCC3)c2)c2ccccn2)cc1` the value was 102 to 104 °C; for `CCOC(=O)[C@H](Cc1ccc(O)cc1)NC(=O)C1(NC(=O)[C@@H](SC(=O)C2CCCC2)C(C)C)CCCC1`, 130 to 131 °C. `Fc1ccc(-c2n[nH]cc2-c2ccnc(Cl)n2)cc1` registered a melting point of 204 to 205 °C. `CC(C)(C)c1cc(CCc2nnco2)cc(C(C)(C)C)c1O` returned a melting point of 100 to 101 °C. For `Cc1c(O)ccc2c(=O)c(-c3cccc(C(F)(F)F)c3)coc12`, the melting point lay within 283 to 284 °C.

The compound `O=C(NN1CCCCC1)c1cn(-c2ccc(Br)cc2)c(-c2ccc(Cl)cc2Cl)n1` had a melting point of 219 to 221 °C. `CN(C)CCNc1ccc(S(C)(=O)=O)cc1[N+](=O)[O-]` came in with a melting point of 130 to 131 °C.

In the case of `O=c1c2ccccc2cc(-c2ccc(F)cc2)n1CCF`, the melting point is 119 to 121 °C. With `CC(C)(C)OC(=O)[C@H](COC(=O)N(N)c1ccc(CC(=O)O)cc1)C(=O)OC(c1ccccc1)c1ccccc1` the figure was 165 to 166 °C; with `Nc1nc(Cl)cc(C=C(Cl)Cl)n1`, 119 to 120 °C.

With `CCCCCCCCCCCCn1nnnc1C(C(=O)Nc1c(C(C)C)cccc1C(C)C)c1ccccc1` (stereo unspecified), the melting point lay within 113 to 115 °C. In the case of `CCOC(=O)c1nc2c(Cl)nc(Cl)c(Cl)n2c1Cl`, the melting point was 132 °C. With `O=C(NC/C=C\COc1cc(CN2CCCCC2)ccn1)c1ccc[nH]1` the figure was 136 to 137 °C; with `CCc1nc2c(N)nc3c(c2n1CCOCCS(C)(=O)=O)CCCC3`, 146 to 148 °C. For `CCOC(=O)C1COc2cc(C=O)c(Cl)c(Cl)c2O1` (stereo unspecified) the value was 101 to 102 °C; for `CCCCOC(=O)COc1ccc(C(=O)Nc2ccccc2Sc2ccc(Cl)cc2-c2nnn[nH]2)cc1`, 156 to 157 °C; for `COc1cc(C2c3cc4c(cc3C(NC(=O)CNCCN(C)C)C3COC(=O)C23)OCO4)cc(OC)c1O` (stereo unspecified), 230 °C.

In turn, `O=S1(=O)NC(C2CCCCC2)Nc2c(Br)cc(Br)cc21` (stereo unspecified) showed a melting point of 166 to 167 °C. Consider `O=C(C=Cc1ccc(O)cc1)N1CCc2c([nH]c3ccccc23)C1c1ccc2c(c1)CCO2` (stereo unspecified), for which the melting point came out at 189 °C. For `O=[N+]([O-])c1cc(Cl)c(OCC(F)(F)F)cc1F` the value was 54 to 55 °C; for `CCCn1c(=O)c2[nH]c(CC34CC5CC(CC(C5)C3)C4)nc2n(CCC)c1=O`, 178 to 180 °C.

As for `CCN(CC)C1=NC(=O)C(=Cc2cccc(-c3ccc(O)c(C45CC6CC(CC(C6)C4)C5)c3)c2)S1`, the melting point was 275 to 277 °C. For `O=C(CS)N[C@@H](CS)C(=O)O` the value was 121 °C; for `O=C(Sc1ccccn1)c1c(F)c(F)c(F)c(F)c1F`, 51 °C. For `O=C(O)C1CCc2c(c3ccccc3n2C(=O)c2cccc(I)c2)C1` (stereo unspecified) the value was 210 to 212 °C; for `N#CCOC(=O)c1ccc(C(c2ccccc2)c2ccccc2)cn1`, 95 to 98 °C; for `O=C(O)CCC(=O)c1cc(Cl)ccc1O`, 172 to 173 °C. Turning to `Cc1ccc(Cl)c(Nc2ccccc2-c2n[nH]c(=S)s2)c1Cl`, the melting point lay within 250 to 252 °C. For `O=C1c2cc(O)ccc2OCC1n1ccnc1` (stereo unspecified) the value was 245 to 247 °C; for `CCN1CCN(c2ccc(Nc3cc(-c4cnc5cc[nH]c5c4)cn4ccnc34)nc2)CC1`, 227 to 230 °C. With `CC(C)N(C[C@H](O)[C@H](Cc1ccccc1)NC(=O)c1ccccc1NC(=O)OCc1ccccn1)NC(=O)OC(C)(C)C` the figure was 155 to 157 °C. Compound `O=C(c1cccc(Oc2ccccc2)c1)c1cccc(Br)n1` gave a melting point of 65 to 66 °C.

`CC(C)(C)c1cc(-c2ccc(NC(=O)COCC(=O)O)cc2)cc(C(C)(C)C)c1O`: the melting point was in the range of 183 to 184 °C. With `COCc1ccc(O)cc1` the figure was 79 to 80 °C; with `COc1cc2ncc(C#N)c(Nc3ccc(Cl)c(C(F)(F)F)c3)c2cc1OC`, 265 to 267 °C; with `CCc1oc2ccccc2c1C(C)(C)C(N)=NO`, 118 to 120 °C.

Take `COC(=O)c1ccccc1C1=NC(C)(C(C)C)C(=O)N1O` (stereo unspecified): the melting point was in the range of 146 to 150 °C. With `C1=C(c2c[nH]c3ccccc23)CCN(CC2CCc3ccccc32)C1` (stereo unspecified) the figure was 168 to 170 °C; with `COC(=O)c1cccc(Oc2ccc([N+](=O)[O-])cc2C(=O)OC)c1`, 97 to 99 °C. With `Clc1ccc2c(-n3cncn3)ccnc2c1` the figure was 169 to 170 °C. For `CCCCCCCCCCc1ccc2cc(OS(=O)(=O)C(F)(F)F)c(SC)cc2c1` the value was 42 to 42.9 °C; for `CSc1nnc(-c2ccc(Cl)nc2)s1`, 136 °C. `CC(C)Cn1cnc2c(N)nc3ccc(CCc4ccccc4)cc3c21` registered a melting point of 175 to 178 °C. For `Cc1cc(Br)cc(C)c1NC(=O)C(C)Br` (stereo unspecified) the value was 187 to 189 °C; for `CN1CCN(c2cccc3ccc(-n4cnc5ccccc54)cc23)CC1`, 148 to 150 °C. Take `COC(=O)C(=Cc1ccccc1)c1ccc2nc(-c3ccccc3)oc2c1`: the melting point lay within 184 to 185 °C.

`CCNCCNC(=O)c1ccnc(F)c1` returned a melting point of 51 to 52 °C. For `CON(C)CCN1C(=O)c2ccccc2C1=O` the value was 130 to 132 °C. For `Cc1nc(NCC(F)(F)F)c2nc(-c3ccccc3)cc-2[nH]1` the value was over 310 °C. With `COC(=O)c1ccc(OCCCCCOc2ccc(C#N)cc2)c(OC)c1` the figure was 105 to 107 °C; with `COc1ccc(C(=O)c2ccc(Sc3ccc(Cl)cc3)cc2)cc1OC`, 118 to 120 °C. In turn, `COC(=O)CN1C(=O)CN=C(c2ccccc2Cl)c2ccccc21` yielded a melting point of 166 to 168 °C. With `CCOC(=O)C(C)Oc1ncn(-c2ccc(Cl)cc2)n1` (stereo unspecified) the figure was 62 to 64 °C; with `COc1ccc(C=O)c(OCCO)c1`, 94 °C; with `CC(C)c1cccc(C(C)C)c1NC(=O)CS(=O)(=O)Nc1c(C(C)C)cccc1C(C)C`, 202 to 205 °C.

Compound `OC1CN(CCCOCCc2ccc3sccc3c2)C1` came in with a melting point of 60 to 62 °C. `CCOc1cc2oc(=O)c3c(c2cc1OCC)CCN(CCN1CCCCC1)C3` displayed a melting point of 144 to 146 °C. For `N#Cc1cc(F)c(N2C(=O)c3ccccc3C2=O)cc1O` the value was 247 °C. With `COc1cc2c(c(-c3cc(F)ccc3F)c1)OC(CN)C2` (stereo unspecified) the figure was 118 to 120 °C; with `CCOc1cc(C2CSCCC2=O)ccc1OC` (stereo unspecified), 108 to 110 °C; with `O=C(Cc1ccccc1)Nc1ccccc1C(F)(F)F`, 104 °C. As for `COc1cc(CO)ccc1OCc1cn(-c2ccccn2)nc1C`, the melting point fell in the range of 135 to 136 °C. With `CC(C)(C)OC(=O)Nc1ccc(C#Cc2nccs2)cc1[N+](=O)[O-]` the figure was 137 °C. Take `CCOC(=O)c1cnn2c(-c3ccc(CC)cc3)ccnc12`: the melting point was in the range of 101 to 103 °C. For `Nc1cc(C(c2cc(F)ccc2F)S(=O)(=O)c2ccc(Cl)nc2)c(Cl)cn1` (stereo unspecified) the value was 157 to 158 °C. With `CCCc1nn(C)c2c(=O)[nH]c(Cc3cccc(N)c3)nc12` the figure was 207 to 210 °C; with `CC(C)OCCC(=O)C=P(c1ccccc1)(c1ccccc1)c1ccccc1`, 66 to 70 °C. With `CCOC(=O)c1cn2c3c(cc(F)cc3c1=O)C(=O)CC2C` (stereo unspecified) the figure was 262 to 265 °C. With `O=C(CNc1ccc(F)cc1)Nc1ccccc1C(=O)O`, the melting point was 217 to 219 °C.

The compound `C=CCOc1ccc(-c2cc3[nH]c4c(c(=O)n3n2)CN(C2CCCCC2)C4=O)cc1` showed a melting point of over 320 °C. For `CCN1CC(CCN2CCOCC2)N(C)c2ccccc2C1=O` (stereo unspecified) the value was 128 to 148 °C; for `O=C(COc1cc(N2C(=O)C3=C(CCCC3)C2=O)c(F)cc1Cl)OCc1nc[nH]n1`, 151 to 154 °C. For `COc1ccc(CN(C)CCCc2ccc(NC(=O)c3cccc4c(=O)c5cccc(F)c5[nH]c34)c(C)c2)cc1OC` the value was 132 °C; for `CC(C)c1ccc(C(=O)c2ccc(N)cc2)cc1`, 110 °C.
